Assay results: ChEMBL document CHEMBL1201862, “PubChem BioAssay data set” (2004)
Activity calls are given as the source filed them.

Tests used:
[1] = biological target: Luciferin 4-monooxygenase (Photinus pyralis, UniProt P08659); assay: firefly luciferase enzyme inhibitors, dose response, biochemical, luminescence (AID 1891)
[2] = Luminescence Cell-Based Dose Confirmation HTS to Identify Inhibitors of Platelet Dense Granule Release. [Related pubchem assays: 1663 (Primary HTS), 1678 (Summary of Project)]; type: functional
[3] = Fluorescence Cell-Based Dose Response to Identify Inhibitors of Thrombin Receptor-Activating Peptide SFLLRN-Mediated P-Selectin Induction on Platelets. [Related pubchem assays: 1663 (Primary HTS), 1889 (retest at dose ), 1891 (counterscreen), 1678 (Project Summary)]; type: functional
[4] = biological target: Voltage-gated inwardly rectifying potassium channel KCNH2 (Homo sapiens, UniProt Q12809); assay: hERG protection from proarrhythmic block, potency, dose response, cell-based, thallium flux (AID 2121); type: ADME
Sequence of Voltage-gated inwardly rectifying potassium channel KCNH2 (Q12809 whole entry): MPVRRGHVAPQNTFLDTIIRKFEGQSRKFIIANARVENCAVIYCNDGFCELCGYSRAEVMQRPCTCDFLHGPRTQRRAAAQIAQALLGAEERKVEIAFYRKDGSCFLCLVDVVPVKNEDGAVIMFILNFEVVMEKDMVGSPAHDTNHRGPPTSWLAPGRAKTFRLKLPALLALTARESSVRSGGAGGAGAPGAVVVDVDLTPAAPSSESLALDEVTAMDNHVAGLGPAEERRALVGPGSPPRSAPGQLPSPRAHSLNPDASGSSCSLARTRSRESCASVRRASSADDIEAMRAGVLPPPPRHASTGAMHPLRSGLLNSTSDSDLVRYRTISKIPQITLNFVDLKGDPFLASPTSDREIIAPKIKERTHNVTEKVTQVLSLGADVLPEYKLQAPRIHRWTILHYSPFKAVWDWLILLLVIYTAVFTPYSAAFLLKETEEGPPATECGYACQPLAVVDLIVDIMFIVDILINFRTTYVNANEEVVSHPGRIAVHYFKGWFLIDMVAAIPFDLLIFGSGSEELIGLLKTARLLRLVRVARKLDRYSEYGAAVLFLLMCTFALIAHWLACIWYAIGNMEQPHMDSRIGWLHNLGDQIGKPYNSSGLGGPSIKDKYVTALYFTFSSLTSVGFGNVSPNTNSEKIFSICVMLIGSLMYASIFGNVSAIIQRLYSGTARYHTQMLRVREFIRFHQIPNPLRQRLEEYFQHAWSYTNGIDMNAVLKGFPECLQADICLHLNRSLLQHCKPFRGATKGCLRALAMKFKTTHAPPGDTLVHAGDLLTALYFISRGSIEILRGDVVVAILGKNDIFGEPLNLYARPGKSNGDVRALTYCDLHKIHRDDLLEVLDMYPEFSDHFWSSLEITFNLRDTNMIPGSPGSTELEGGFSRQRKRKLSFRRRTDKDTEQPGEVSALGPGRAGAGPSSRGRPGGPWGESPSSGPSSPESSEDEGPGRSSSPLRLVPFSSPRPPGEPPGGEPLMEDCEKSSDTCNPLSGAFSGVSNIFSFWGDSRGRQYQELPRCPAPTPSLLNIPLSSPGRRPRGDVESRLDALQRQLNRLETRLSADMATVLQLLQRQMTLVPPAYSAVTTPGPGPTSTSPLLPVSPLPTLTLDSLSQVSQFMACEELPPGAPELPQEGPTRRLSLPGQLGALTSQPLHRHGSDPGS

[5] = inhibitors of intracellular T. cruzi replication, confirmation, NIH3T3 host cells, beta-gal luminescence (AID 2044); type: functional, cell-based;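 further: intracellular parasites grown in NIH/3T3 mouse fibroblasts as host cells; luminescent beta-galactosidase reporter signal from transgenic T. cruzi replicating inside host cells; inhibitors lower the luminescence signal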
[6] = cytotoxicity toward NIH3T3 fibroblasts, dose response, counter-screen, cell-based, ATP luminescence, mouse fibroblasts (AID 2010); type: functional;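 further: cells exposed to compound for about 90 hours before reading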
[7] = test system: Vero; assay: West Nile virus antiviral activity, cell-based, CPE readout (AID 1621); type: functional; details: Chlorocebus sabaeus
[8] = cells
[9] = Luminescent dose response cell-based high throughput screening assay for inhibitors of the Janus kinase 2 mutant JAK2V617F. [Related pubchem assays: 1446 (Primary screen.), 1521 (Confirmation assay.), 1486 (Counter screen.)]; type: functional
[10] = biological target: T1, Sphingosine 1-phosphate receptor 4 (Homo sapiens, UniProt O95977); assay: Late stage fluorescence dose response cell-based screening assay for antagonists of the Sphingosine 1-Phosphate Receptor 4 (S1P4). [Related pubchem assays: 1524 (Confirmation screen (S1P4 antagonists).), 1510 (Primary screen (S1P4 antagonists).), 1853 (Summary AID (S1P4 antagonists).), 1692 (Dose response screen (S1P4 antagonists).)]; type: functional
T1 sequence (O95977 whole entry): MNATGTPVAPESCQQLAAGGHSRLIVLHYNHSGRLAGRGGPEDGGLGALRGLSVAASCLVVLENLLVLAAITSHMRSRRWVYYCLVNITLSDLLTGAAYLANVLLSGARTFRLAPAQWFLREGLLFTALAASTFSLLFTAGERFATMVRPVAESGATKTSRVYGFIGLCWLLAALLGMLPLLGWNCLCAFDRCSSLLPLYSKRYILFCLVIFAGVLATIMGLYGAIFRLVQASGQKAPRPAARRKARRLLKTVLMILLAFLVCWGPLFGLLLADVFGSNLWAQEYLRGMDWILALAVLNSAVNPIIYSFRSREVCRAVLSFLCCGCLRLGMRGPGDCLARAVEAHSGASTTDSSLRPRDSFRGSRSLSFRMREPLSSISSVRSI

[11] = biological target: T1, Sphingosine 1-phosphate receptor 4; assay: Fluorescence dose response cell-based high throughput screening assay for antagonists of the Sphingosine 1-Phosphate Receptor 4 (S1P4). [Related pubchem assays: 1524 (Confirmation in triplicates.), 1510 (Primary screen.)]; type: functional
[12] = biological target: Sphingosine 1-phosphate receptor 1 (Homo sapiens, UniProt P21453); type: functional;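 further: Tango beta-arrestin reporter U2OS cells stimulated with S1P near its EC80; inhibitor potency meaning antagonism of receptor activation by the natural agonist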
Sequence of Sphingosine 1-phosphate receptor 1 (P21453 whole entry): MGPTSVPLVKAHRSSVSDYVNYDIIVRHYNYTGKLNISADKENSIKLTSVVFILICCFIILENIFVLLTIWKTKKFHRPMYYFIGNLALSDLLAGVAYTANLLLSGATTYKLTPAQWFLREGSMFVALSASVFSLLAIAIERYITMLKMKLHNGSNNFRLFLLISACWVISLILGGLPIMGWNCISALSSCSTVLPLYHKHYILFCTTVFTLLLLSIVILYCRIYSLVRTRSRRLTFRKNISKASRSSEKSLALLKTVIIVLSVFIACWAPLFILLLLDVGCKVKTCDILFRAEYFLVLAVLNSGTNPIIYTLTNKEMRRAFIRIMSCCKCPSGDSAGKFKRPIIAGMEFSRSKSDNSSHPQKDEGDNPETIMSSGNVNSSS

[13] = THP-1 cell cytotoxicity, dose response, cytotoxicity control for non-replicating M. tuberculosis project (AID 489025); type: functional
[14] = biological target: Heat shock protein HSP 90-alpha (Homo sapiens, UniProt P07900); type: functional, organism-based
[15] = biological target: T2, High affinity choline transporter 1 (Homo sapiens, UniProt Q9GZV3); assay: CHT inhibitors, dose response, cell-based, 5-point CRC, membrane potential dye (AID 504840); type: functional
T2 sequence (Q9GZV3 whole entry): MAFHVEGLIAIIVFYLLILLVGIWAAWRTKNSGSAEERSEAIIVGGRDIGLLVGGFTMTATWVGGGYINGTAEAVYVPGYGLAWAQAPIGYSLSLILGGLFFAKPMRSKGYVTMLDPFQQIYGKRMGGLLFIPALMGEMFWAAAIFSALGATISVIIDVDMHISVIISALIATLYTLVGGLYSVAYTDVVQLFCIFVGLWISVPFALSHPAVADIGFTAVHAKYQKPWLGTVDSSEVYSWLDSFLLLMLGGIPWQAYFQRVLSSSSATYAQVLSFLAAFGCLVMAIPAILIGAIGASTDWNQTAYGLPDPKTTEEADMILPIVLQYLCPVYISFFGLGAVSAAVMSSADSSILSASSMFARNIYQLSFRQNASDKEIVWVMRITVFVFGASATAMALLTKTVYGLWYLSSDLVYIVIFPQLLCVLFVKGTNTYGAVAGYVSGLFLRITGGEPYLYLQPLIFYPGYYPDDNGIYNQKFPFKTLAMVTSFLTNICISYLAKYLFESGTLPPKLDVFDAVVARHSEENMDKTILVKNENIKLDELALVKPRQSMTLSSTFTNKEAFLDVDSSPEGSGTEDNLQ

[16] = test system: INS1; assay: beta cell apoptosis inhibitors, cytokine rescue, dose response, luminescence, retest (AID 449756); type: functional, cell-based; details: Rattus norvegicus;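 further: cell death triggered by IL-1 beta plus TNF-alpha plus IFN-gamma mixture; protective hits raise ATP signal compared with cytokine alone wells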
[17] = inhibitors of PGC1a acetylation in cells, dose response, cell-based, cherry-picked samples (AID 720514); type: functional;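 further: potency may reflect raised or lowered acetylation signal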
[18] = A549 cell cytotoxicity, dose response, cytotoxicity control, plate reader, cherry-pick, antagonist series (AID 743412); type: functional, cell-based
[19] = HepG2 cell cytotoxicity, dose response, cytotoxicity control, plate reader, cherry-pick, antagonist series (AID 743416); type: functional, cell-based
[20] = LGR2 antagonists, dose response, cell-based, HEK293, CRE-luciferase reporter, cherry pick, set 2 (AID 743343); type: functional;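 further: transfected cells were stimulated with diluted bursicon conditioned medium after compound addition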
[21] = MC4R antagonists, dose response, counter-screen for LGR2 antagonist project, cell-based, plate reader, cherry pick (AID 743444); type: functional;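 further: transfected HEK 293 cells stimulated with alpha-MSH peptide; potency of inhibitors of the alpha-MSH evoked signal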
[22] = HEK293 cell cytotoxicity, dose response, cytotoxicity control, plate reader, cherry-picked samples (AID 743446); type: functional, cell-based
[23] = biological target: Heat shock protein HSP90 (Homo sapiens, UniProt P07900+P08238); assay: tumor Hsp90 inhibitor potency, dose response (AID 712); type: functional
[24] = biological target: T3, Mannose-6-phosphate isomerase (Homo sapiens, UniProt P34949); assay: human PMI inhibitors, high substrate, primary screen, biochemical, fluorescence intensity, high mannose 6-phosphate (AID 1220)
T3 sequence (P34949 whole entry): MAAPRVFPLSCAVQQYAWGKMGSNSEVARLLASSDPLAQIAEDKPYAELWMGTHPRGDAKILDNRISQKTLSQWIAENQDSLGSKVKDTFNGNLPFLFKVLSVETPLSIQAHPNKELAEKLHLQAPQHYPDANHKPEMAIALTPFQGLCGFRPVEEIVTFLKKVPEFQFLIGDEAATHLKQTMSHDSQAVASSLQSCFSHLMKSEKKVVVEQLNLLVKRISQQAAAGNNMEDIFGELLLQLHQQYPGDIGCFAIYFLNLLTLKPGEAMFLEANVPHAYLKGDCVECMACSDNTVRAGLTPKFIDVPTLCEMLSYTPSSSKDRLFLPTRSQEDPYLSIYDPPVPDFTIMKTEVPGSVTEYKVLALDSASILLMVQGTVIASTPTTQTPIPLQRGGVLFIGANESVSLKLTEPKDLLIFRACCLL

[25] = biological target: T4, Replicative DNA helicase DnaB (Mycobacterium tuberculosis, UniProt P9WMR3); assay: DnaB intein splicing inhibitors, dose response, biochemical, cell-free fluorescence (AID 449749); type: functional
T4 sequence (P9WMR3 whole entry): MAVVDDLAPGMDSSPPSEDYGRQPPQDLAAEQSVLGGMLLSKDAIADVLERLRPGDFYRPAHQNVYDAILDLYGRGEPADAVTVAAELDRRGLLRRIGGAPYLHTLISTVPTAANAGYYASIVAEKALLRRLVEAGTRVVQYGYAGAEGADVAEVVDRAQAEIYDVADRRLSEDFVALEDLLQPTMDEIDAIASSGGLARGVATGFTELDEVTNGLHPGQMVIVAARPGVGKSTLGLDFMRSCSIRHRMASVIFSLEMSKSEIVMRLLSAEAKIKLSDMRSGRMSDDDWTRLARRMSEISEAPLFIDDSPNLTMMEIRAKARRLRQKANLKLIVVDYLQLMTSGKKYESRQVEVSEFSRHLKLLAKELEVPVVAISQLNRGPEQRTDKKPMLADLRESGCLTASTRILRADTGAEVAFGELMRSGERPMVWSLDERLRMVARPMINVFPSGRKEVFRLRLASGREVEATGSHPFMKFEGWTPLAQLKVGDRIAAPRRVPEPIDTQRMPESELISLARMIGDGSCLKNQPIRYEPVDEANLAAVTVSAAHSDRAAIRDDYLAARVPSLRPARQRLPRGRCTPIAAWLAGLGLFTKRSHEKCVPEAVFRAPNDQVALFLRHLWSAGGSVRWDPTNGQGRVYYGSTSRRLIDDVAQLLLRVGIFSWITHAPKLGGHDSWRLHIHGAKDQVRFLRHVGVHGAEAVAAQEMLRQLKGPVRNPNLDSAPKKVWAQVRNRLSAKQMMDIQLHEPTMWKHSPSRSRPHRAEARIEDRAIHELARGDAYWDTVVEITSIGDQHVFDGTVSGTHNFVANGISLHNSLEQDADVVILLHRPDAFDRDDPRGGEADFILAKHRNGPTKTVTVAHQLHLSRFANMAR

[26] = biological target: T5, Protein RecA (Mycobacterium tuberculosis, UniProt P9WHJ3); assay: Fluorescence Cell-Free Homogeneous Dose Retest to Identify Inhibitors of RecA-Intein Splicing Activity. [Related pubchem assays (depositor defined):AID2097, AID2223, AID489010, AID492950]; type: functional
T5 sequence (P9WHJ3 whole entry): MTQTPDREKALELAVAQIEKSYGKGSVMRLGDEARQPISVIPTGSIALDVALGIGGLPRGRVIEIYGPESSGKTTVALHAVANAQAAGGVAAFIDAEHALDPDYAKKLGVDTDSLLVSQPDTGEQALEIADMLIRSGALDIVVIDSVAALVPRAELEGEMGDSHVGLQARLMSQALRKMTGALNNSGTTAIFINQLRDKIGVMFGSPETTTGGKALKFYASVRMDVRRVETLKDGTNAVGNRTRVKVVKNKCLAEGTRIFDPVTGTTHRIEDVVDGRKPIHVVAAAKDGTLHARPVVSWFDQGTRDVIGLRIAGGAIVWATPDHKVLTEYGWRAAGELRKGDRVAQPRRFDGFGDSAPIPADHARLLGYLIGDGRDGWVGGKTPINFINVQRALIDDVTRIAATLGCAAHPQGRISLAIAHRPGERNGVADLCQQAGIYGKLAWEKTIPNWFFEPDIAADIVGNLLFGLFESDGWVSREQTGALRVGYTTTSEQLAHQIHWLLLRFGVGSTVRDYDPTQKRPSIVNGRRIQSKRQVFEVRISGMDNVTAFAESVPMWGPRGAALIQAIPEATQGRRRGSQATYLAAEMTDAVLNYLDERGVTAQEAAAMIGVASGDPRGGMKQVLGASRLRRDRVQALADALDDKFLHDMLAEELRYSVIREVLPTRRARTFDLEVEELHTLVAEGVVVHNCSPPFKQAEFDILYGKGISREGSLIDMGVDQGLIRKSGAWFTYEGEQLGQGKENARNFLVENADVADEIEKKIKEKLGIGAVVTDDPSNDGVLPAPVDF

[27] = biological target: Peroxisome proliferator-activated receptor gamma/Nuclear receptor corepressor 2 (Homo sapiens, UniProt P37231+Q9Y618); assay: Counterscreen for NR2E3 inverse agonists: TR-FRET-based biochemical high throughput dose response assay to identify inverse agonists of the interaction between peroxisome proliferator-activated receptor gamma (PPARg) and nuclear receptor co-repressor 2 (NCOR2).; type: functional
[28] = biological target: Photoreceptor-specific nuclear receptor (Homo sapiens, UniProt Q9Y5X4); assay: NR2E3 inverse agonists, dose response, biochemical, TR-FRET (AID 463256); type: functional
Sequence of Photoreceptor-specific nuclear receptor (Q9Y5X4 whole entry): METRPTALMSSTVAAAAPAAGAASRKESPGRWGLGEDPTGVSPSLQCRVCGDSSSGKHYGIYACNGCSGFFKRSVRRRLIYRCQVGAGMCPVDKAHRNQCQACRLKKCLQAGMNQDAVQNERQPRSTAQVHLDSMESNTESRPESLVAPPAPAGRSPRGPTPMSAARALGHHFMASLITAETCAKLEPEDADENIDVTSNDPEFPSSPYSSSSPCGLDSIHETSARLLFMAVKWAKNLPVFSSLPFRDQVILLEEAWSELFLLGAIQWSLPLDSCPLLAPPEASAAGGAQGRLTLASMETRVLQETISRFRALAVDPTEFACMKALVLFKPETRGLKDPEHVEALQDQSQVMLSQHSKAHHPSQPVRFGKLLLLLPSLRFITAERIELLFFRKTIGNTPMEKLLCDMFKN

Sequence of Luciferin 4-monooxygenase (P08659 whole entry): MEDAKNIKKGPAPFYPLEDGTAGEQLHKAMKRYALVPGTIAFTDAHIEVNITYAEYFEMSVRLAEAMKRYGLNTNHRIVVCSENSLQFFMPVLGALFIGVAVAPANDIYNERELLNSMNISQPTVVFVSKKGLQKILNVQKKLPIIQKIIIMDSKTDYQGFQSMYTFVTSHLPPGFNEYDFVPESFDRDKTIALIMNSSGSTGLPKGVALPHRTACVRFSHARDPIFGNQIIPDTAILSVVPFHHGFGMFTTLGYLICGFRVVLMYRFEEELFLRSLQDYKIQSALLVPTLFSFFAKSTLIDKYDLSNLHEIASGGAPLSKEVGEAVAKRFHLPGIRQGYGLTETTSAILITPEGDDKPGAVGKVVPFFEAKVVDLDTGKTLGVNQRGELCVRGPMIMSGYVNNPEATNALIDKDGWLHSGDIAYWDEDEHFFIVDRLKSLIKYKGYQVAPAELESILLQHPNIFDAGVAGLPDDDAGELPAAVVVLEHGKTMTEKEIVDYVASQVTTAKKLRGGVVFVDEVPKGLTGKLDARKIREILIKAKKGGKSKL

In the case of `COc1ccccc1C(=O)Nc1cnc(O)nc1O`, the EC50 [1] was > 112 µM (not active), the EC50 [2] was 0.25 µM (active) and the EC50 [3] was < 0.3 µM (active).

With `COC(=O)c1ccc(CSc2ncnc3sc(C)c(C)c23)o1` the EC50 [4] was 11.1 µM (active).

In the case of `CCN1CCN(c2ccc(S(=O)(=O)N3CCCCC3)cc2NC(=O)Cc2c(Cl)cccc2Cl)CC1`, the EC50 [5] was < 0.1 µM (active), the EC50 [6] was 49.2 µM (active) and the IC50 [7] was 27.1 µM (active). For the same molecule, the EC50 [8] was 0.06 µM (active).

With `COc1ccc([N+](=O)[O-])c(S(=O)(=O)c2ccc(Cl)cc2)n1` the IC50 [9] was 0.81 µM (active), the IC50 [10] was 1.15 µM (not active) and the IC50 [11] was 0.391 µM (active). The IC50 [12] was 4.73 µM (active), the CC50 [13] was 38.1 µM (active) and the AC50 [14] was 0.753 µM (active). The IC50 [15] was 11 µM (active), the AC50 [16] was 6.17 µM (active) and the AC50 [17] was 8.16 µM (active). For the same molecule, the AC50 [18] was 7.69 µM (active), the AC50 [19] was 7.08 µM (active) and the AC50 [20] was 2.64 µM (active). The AC50 [21] was 3.78 µM (active) and the AC50 [22] was 10 µM (active).

With `Oc1ccc(/C=N/c2ccc3ncccc3c2)c(O)c1` the IC50 [23] was greater than 50 µM, the IC50 [24] was > 50 µM (not active) and the AC50 [25] was 11.5 µM (active). For the same molecule, the EC50 [26] was 29 µM (active).

In the case of `Cc1ccc2[nH]c(CCN(C)C)c(CN3CCOCC3)c2c1`, the IC50 [27] was 10.7 µM (not active) and the IC50 [28] was 6.09 µM (active).
